Laboratory results published in paper PMC7849180 (Frontiers in Pharmacology, 2020).
Where a name gives a salt, the structure may show the parent alone. Read-outs that look alike come from different tables or passages of the source.

Tests used:
myelofibrosis [1] = details: ref Momelotinib extension study; cited from earlier work
myelofibrosis [2] = test system: myelofibrosis; parameters: method as in RA Abdelrahman et. al.; details: ref RA Abdelrahman et. al., cited from earlier work; for CR / Clinical Improvement (CI) / PR: 2013 IWG-MRT criteria; for patients with symptom improvement: 2013 IWG-MRT-ELN criteria
myelofibrosis [3] = details: cited from earlier work
CYP2C19 = biological target: T1, CYP2C19 (Homo sapiens, UniProt P33261); type: in vitro ADME; details: microsomes
T1 construct: using mixed human liver microsomes and human primary hepatocytes as the in vitro; from tissue; host or cells: mixed (pooled) human liver microsomes
T1 sequence (P33261 whole entry): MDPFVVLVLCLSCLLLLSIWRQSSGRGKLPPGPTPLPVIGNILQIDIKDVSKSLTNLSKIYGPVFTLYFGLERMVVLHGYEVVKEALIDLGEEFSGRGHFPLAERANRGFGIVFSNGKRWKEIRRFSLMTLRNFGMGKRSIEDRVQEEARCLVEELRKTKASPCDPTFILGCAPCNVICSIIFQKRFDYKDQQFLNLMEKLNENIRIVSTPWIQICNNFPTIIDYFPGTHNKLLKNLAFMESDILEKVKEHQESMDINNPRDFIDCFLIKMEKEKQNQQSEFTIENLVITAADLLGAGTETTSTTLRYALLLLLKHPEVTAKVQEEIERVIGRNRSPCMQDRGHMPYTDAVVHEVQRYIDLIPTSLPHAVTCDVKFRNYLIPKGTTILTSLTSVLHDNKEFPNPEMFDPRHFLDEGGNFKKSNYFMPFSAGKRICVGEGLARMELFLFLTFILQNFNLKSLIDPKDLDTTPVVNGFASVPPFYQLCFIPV

CYP2B6 = biological target: T2, CYP2B6 (Homo sapiens, UniProt P20813); type: in vitro ADME; details: microsomes
T2 construct: using mixed human liver microsomes and human primary hepatocytes as the in vitro; from tissue; host or cells: mixed (pooled) human liver microsomes
T2 sequence (P20813 whole entry): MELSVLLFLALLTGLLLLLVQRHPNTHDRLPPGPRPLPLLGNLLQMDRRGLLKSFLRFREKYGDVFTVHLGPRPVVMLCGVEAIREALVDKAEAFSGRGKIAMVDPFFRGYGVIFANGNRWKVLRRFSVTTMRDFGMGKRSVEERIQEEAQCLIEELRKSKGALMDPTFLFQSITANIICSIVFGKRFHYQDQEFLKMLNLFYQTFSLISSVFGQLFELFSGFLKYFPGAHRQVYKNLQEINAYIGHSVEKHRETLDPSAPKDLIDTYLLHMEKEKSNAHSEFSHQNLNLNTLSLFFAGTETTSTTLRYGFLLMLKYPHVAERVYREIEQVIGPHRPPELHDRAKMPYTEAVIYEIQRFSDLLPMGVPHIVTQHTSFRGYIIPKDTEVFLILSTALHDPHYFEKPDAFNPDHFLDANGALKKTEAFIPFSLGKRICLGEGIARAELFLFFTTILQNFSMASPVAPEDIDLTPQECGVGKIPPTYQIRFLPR

CYP3A4 = biological target: T3, CYP3A4 (Homo sapiens, UniProt P08684); assay: CYP inhibition, mixed human liver microsomes; type: in vitro ADME
T3 construct: using mixed human liver microsomes and human primary hepatocytes as the in vitro; from tissue; host or cells: mixed (pooled) human liver microsomes
T3 sequence (P08684 whole entry): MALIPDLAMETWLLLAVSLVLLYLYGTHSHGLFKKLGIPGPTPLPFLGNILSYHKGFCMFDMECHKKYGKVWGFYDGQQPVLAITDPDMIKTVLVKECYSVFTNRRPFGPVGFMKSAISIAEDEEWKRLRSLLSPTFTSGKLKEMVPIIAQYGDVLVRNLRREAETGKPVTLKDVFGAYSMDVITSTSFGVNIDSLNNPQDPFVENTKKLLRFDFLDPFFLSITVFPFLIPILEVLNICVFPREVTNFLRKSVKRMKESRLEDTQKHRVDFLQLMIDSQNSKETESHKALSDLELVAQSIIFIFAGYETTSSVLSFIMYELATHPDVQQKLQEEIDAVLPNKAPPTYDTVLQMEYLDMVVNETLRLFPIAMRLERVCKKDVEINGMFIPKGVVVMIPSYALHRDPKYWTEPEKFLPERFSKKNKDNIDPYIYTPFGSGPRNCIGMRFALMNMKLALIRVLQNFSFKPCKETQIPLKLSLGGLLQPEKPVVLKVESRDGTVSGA

CYP2D6 = biological target: T4, CYP2D6 (Homo sapiens, UniProt P10635); type: in vitro ADME; details: microsomes
T4 construct: using mixed human liver microsomes and human primary hepatocytes as the in vitro; from tissue; host or cells: mixed (pooled) human liver microsomes
T4 sequence (P10635 whole entry): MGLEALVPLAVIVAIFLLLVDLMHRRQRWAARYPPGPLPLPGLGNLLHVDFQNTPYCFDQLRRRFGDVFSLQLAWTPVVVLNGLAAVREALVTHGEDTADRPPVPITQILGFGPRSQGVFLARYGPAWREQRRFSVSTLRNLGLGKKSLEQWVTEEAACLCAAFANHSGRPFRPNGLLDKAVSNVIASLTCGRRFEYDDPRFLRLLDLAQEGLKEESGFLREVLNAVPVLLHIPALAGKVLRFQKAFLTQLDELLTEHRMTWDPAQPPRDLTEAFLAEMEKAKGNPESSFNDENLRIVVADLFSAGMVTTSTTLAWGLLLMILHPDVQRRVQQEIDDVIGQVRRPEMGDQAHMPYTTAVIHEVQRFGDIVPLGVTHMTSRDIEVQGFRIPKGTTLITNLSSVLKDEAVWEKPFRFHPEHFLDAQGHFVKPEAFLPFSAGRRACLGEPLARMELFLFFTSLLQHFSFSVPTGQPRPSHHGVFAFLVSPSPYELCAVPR

CYP2C9 = biological target: T5, CYP2C9 (Homo sapiens, UniProt P11712); type: in vitro ADME; details: microsomes
T5 construct: using mixed human liver microsomes and human primary hepatocytes as the in vitro; from tissue; host or cells: mixed (pooled) human liver microsomes
T5 sequence (P11712 whole entry): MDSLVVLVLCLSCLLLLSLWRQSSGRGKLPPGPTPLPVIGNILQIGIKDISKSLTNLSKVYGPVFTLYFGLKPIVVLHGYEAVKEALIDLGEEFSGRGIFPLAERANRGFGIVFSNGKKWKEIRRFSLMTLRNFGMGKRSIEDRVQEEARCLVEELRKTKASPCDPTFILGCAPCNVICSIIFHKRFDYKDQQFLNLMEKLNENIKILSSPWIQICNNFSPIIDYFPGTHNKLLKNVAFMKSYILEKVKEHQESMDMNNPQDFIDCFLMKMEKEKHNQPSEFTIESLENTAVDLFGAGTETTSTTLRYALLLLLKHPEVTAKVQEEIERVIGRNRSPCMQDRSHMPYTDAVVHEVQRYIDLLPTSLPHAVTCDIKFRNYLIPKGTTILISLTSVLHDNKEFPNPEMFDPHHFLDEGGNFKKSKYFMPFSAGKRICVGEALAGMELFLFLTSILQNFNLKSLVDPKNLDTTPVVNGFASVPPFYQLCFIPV

CYP1A2 = biological target: T6, CYP1A2 (Homo sapiens, UniProt P05177); type: in vitro ADME; details: microsomes
T6 construct: using mixed human liver microsomes and human primary hepatocytes as the in vitro; from tissue; host or cells: mixed (pooled) human liver microsomes
T6 sequence (P05177 whole entry): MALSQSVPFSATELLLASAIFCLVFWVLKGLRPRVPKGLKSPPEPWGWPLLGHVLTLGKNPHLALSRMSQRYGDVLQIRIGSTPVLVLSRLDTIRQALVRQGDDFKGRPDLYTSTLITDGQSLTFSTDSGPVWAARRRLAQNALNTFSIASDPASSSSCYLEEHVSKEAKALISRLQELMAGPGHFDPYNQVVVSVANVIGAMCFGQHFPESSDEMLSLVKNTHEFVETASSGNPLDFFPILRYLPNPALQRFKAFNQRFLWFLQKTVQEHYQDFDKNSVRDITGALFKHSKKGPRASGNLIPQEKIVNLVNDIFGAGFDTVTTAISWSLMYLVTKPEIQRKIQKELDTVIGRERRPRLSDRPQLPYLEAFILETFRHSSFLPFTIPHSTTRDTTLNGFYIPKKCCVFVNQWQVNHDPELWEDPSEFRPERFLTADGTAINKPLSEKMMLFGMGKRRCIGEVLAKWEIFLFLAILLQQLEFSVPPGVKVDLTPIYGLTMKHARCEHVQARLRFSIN

[4] = test system: primary cells harboring the JAK2V617F mutation in patients with polycythemia vera; assay: Colony forming of erythroid hematopoietic cells of polycythemia vera patients; type: cell-based, human; details: 9 patients
Excerpt: (§1) Suzhou Zelgen Biopharmaceuticals Co., Ltd. Jaktinib Hydrochloride Tablets Chemical Drug Class 1 New Drug and ZG0178. However, the inhibitory effect on the activity of Ba/F3-EpoR cell line […]
(§2) respectively. Obviously, this selective inhibition is associated with the aberrant expression of JAK2 in Ba/F3-EpoR-JAK2V617F mutant cells, and the degree of ZG0163 inhibition on JAK-STAT signaling pathway in this cell line. […]
(§3) cells, and the effects of ZG0163 was similar to those of positive control compounds, […]
(§4) In Vitro Inhibitory Effect of ZG0128 on Cell Lines Transfected with Oncogenes and Primary Blood Cells in Patients with Polycythemia Vera
(§5) In vitro cell culture assay was used to determine whether compound ZG0128 […]
(§6) cell line harboring a JAK2V617F mutation, and 8 HCD-57 cell lines stably transfected with oncogenic mutations JAK2V617F, MPLW515L, KITD816V, NPM-ALK, FLT3-ITD, FLT3D835H, FLT3D835Y and KRasG12V, respectively. In addition, study the inhibitory effects of compound ZG0128 on the growth of hematopoietic progenitor cells in patients with polycythemia vera.
(§7) 9 cell lines were similar to those of positive control drug ZG0192. At the sub-micromolar concentration, both compounds ZG0128 and ZG0192 were able to […]
(§8) the growth of HCD-57 cells transfected with oncogenic mutations JAK2V617F, […]
(§9) spectrum inhibitory effect on tyrosine kinases. […]

CYP2C8 = biological target: T7, CYP2C8 (Homo sapiens, UniProt P10632); type: in vitro ADME; details: microsomes
T7 construct: using mixed human liver microsomes and human primary hepatocytes as the in vitro; from tissue; host or cells: mixed (pooled) human liver microsomes
T7 sequence (P10632 whole entry): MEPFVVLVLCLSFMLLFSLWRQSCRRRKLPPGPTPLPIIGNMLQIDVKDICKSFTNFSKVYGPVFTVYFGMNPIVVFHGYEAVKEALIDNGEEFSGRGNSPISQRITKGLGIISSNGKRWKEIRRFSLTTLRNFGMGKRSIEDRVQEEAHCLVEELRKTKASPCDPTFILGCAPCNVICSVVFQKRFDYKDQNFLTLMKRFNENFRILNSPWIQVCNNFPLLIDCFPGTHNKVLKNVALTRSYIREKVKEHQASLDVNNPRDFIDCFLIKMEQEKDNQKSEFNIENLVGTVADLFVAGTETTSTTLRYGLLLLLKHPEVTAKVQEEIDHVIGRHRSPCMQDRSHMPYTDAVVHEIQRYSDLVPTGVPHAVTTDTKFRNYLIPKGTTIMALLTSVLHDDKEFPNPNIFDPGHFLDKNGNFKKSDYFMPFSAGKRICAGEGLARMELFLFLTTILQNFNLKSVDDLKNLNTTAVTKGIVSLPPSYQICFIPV

[5] = test system: J53Z1 cells harboring the JAK2V617F mutation and HCD-57 cells transfected with oncogenic mutations; assay: Growth of cell lines transfected with oncogenes; type: cell-based
Excerpt: as §1, §2, §3, §4, §5, §6, §7, §8, §9

polycythemia vera = details: cited from earlier work
myelofibrosis [6] = test system: myelofibrosis; parameters: method as in COMFORT-II; details: Week 48, ref COMFORT-II; cited from earlier work
myelofibrosis [7] = test system: myelofibrosis; parameters: method as in Ruxolitinib Phase I/II trials; details: within 3 months, 153 MF patients, ref Ruxolitinib Phase I/II trials; cited from earlier work
myelofibrosis [8] = test system: myelofibrosis; parameters: method as in COMFORT-I; details: ref COMFORT-I; cited from earlier work
[9] = 150 mg bid, ref Momelotinib Phase I/II
[10] = 150 mg qd, ref Momelotinib Phase I/II
[11] = 300 mg qd, ref Momelotinib Phase I/II
[12] = Grade 1, ref Momelotinib Phase I/II
[13] = Grade 2, ref Momelotinib Phase I/II
[14] = Grade 3, ref Momelotinib Phase I/II
[15] = Grade 4, ref Momelotinib Phase I/II
[16] = Total (n=166), ref Momelotinib Phase I/II
[17] = all cases (n=166), ref Momelotinib Phase I/II

## N#CCNC(=O)c1ccc(-c2ccnc(Nc3ccc(N4CCOCC4)cc3)n2)cc1 [Momelotinib]
Myelofibrosis [1]
  First Dose Effect: hypotension: 5%
  First Dose Effect: transient dizziness: 10%
  Grade 3/4 thrombocytopenia: 30%
  median maintenance duration of anemia response: 1,042 days
  median spleen response duration: 785 days
  patients with anemia response: 53%
  patients with spleen response (IWG-MRT): 39%
Myelofibrosis [2]
  CR: 0 (0%) n (%)
  Clinical Improvement (CI): 34 (57%) n (%)
  PR: 1 (1.7%) n (%)
  patients with symptom improvement: 57%
  Anemia Response: 42 (19; 45%) n (responses; %)
  Anemia Response in Transfusion-Dependent Patients: 32 (17; 53%) n (responses; %)
  Spleen Response: 57 (24; 42%) Evaluables (responses; %)
  anemia response rate: 45%
  spleen volume reduction response rate: 42%
Myelofibrosis [3]; [9]
  Average Reduction in Spleen Volume at Month 6: -46%
  Hemoglobin Elevation of 2 g/dL or Above (8 Weeks): 14%
  IWG-MRT Anemia Response Rate: 36%
  Spleen Response: 38%
  Transfusion Independence Rate (12 Weeks): 57%
Myelofibrosis [3]; [10]
  Average Reduction in Spleen Volume at Month 6: -36%
  Hemoglobin Elevation of 2 g/dL or Above (8 Weeks): 11%
  IWG-MRT Anemia Response Rate: 48%
  Spleen Response: 32%
  Transfusion Independence Rate (12 Weeks): 63%
Myelofibrosis [3]; [11]
  Average Reduction in Spleen Volume at Month 6: -38%
  Hemoglobin Elevation of 2 g/dL or Above (8 Weeks): 8%
  IWG-MRT Anemia Response Rate: 55%
  Spleen Response: 39%
  Transfusion Independence Rate (12 Weeks): 75%
Myelofibrosis [3]; [12]
  ALP Elevation: 5%
  ALT Elevation: 9%
  AST Elevation: 9%
  Amylase Elevation: 7%
  Anemia, drug-related AE: 2%
  Bilirubin Elevation: 7%
  Creatinine Elevation: 5%
  Diarrhea, drug-related AE: 18%
  Headache, drug-related AE: 14%
  Leukopenia, drug-related AE: 2%
  Lipase Elevation: 8%
  Nausea, drug-related AE: 20%
  Neutropenia, drug-related AE: < 1%
  Peripheral Neuropathy, drug-related AE: 25%
  Thrombocytopenia, Baseline Platelet > 150 x 109/L (n=97): 18%
  Thrombocytopenia, drug-related AE: 14%
  Vertigo, drug-related AE: 22%
Myelofibrosis [3]; [13]
  ALP Elevation: 1%
  ALT Elevation: 3%
  AST Elevation: 2%
  Amylase Elevation: 2%
  Anemia, drug-related AE: 2%
  Bilirubin Elevation: 2%
  Creatinine Elevation: 3%
  Diarrhea, drug-related AE: 4%
  Leukopenia, drug-related AE: < 1%
  Lipase Elevation: < 1%
  Nausea, drug-related AE: < 1%
  Neutropenia, drug-related AE: 2%
  Peripheral Neuropathy, drug-related AE: 2%
  Thrombocytopenia, Baseline Platelet > 150 x 109/L (n=97): 1%
  Thrombocytopenia, drug-related AE: 8%
  Vertigo, drug-related AE: 1%
Myelofibrosis [3]; [14]
  ALP Elevation: 1%
  ALT Elevation: 2%
  AST Elevation: 1%
  Anemia, drug-related AE: 2%
  Headache, drug-related AE: 1%
  Lipase Elevation: 4%
  Neutropenia, drug-related AE: 1%
  Thrombocytopenia, Baseline Platelet > 150 x 109/L (n=97): 9%
  Thrombocytopenia, drug-related AE: 17%
Myelofibrosis [3]; [15]
  Leukopenia, drug-related AE: < 1%
  Neutropenia, drug-related AE: 2%
  Thrombocytopenia, Baseline Platelet > 150 x 109/L (n=97): 1%
  Thrombocytopenia, drug-related AE: 7%
Myelofibrosis [3]; [16]
  Hemoglobin Elevation of 2 g/dL or Above (8 Weeks): 13%
  IWG-MRT Anemia Response Rate: 48%
  Transfusion Independence Rate (12 Weeks): 68%
Myelofibrosis [3]; [17]
  Average Reduction in Spleen Volume at Month 6: -38%
  Spleen Response: 37%
Myelofibrosis [3]; n=33, ref Momelotinib Phase I/II
  transfusion dependent patients with non-transfusion dependent duration of at least 12 weeks: 70%
Myelofibrosis [3]; ref Momelotinib Phase I/II
  patients with improvement of anemia: 59%
  symptom controlled: bone pain: 33%
  symptom controlled: cough: 29%
  symptom controlled: fever: 100%
  symptom controlled: night sweat: 57%
  symptom controlled: pruritus: 52%

## N#CCNC(=O)c1ccc(-c2ccnc(Nc3ccc(N4CCOCC4)cc3)n2)cc1 [ZG0128, Jaktinib Dihydrochloride Monohydrate]
CYP2C19
  IC50: > 100 µM
CYP2B6
  IC50: > 100 µM
CYP3A4; microsomes
  IC50: > 100 µM
CYP3A4; midazolam 1'-hydroxylation, read-out: IC50
  IC50: > 100 µM
CYP2D6
  IC50: > 100 µM
CYP2C9
  IC50: > 100 µM
CYP1A2
  IC50: > 100 µM
[4]
  IC50: 0.18 µM
CYP2C8
  IC50: > 100 µM
[5]; J53Z1 and HCD-57 with JAK2V617F, MPLW515L, KITD816V, FLT3-ITD, FLT3D835H, FLT3D835Y, read-out: IC50, growth inhibition, range over cell lines
  IC50: 0.31 to 0.71 µM
[5]; transfected JAK2V617F cell lines, read-out: IC50
  IC50: 0.61 µM

## N#CC[C@H](C1CCCC1)n1cc(-c2ncnc3[nH]ccc23)cn1 [Ruxolitinib]
Myelofibrosis [2]
  CR: 0 (0%) n (%)
  Clinical Improvement (CI): 9 (18%) n (%)
  PR: 0 (0%) n (%)
  patients with symptom improvement: 18%
  Anemia Response: 19 (2; 11%) n (responses; %)
  Anemia Response in Transfusion-Dependent Patients: 12 (2; 17%) n (responses; %)
  Spleen Response: 46 (7; 15%) Evaluables (responses; %)
  anemia response rate: 11%
  spleen volume reduction response rate: 15%
Polycythemia vera; Ruxolitinib group, ref RESPONSE study
  Thrombus, patients: 1
Polycythemia vera; in vivo
  Herpes zoster infection: 6%
  herpes zoster incidence: 4.7%
Myelofibrosis [6]
  patients with ≥35% reduction in spleen volume: 28%
Myelofibrosis [7]
  patients with >50% reduction in spleen volume: 44%
Myelofibrosis [8]
  patients with ≥35% reduction in spleen volume: 41.9%
